In patent publication US7384478B2, “Apparatus and process for preparing crystalline particles” (Glaxo Group Limited, priority 2002, dated 2008):
Marks after values point to notes of the source that are not given here.

Experiment: Particle sizing with the Malvern laser diffraction particle sizer
Assay type: physicochemical
Conditions: for Malvern size data D10 / Malvern size data D50 / Malvern size data D90: crystalline fluticasone propionate particles, average of 2 results except values marked **
Description: The drug substance (fluticasone propionate, FP) (1 wt) was dissolved in acetone (15-20 vols, according to experiment) by heating to 56° C. and then allowed to cool to between 25 and 35° C. A first peristaltic pump was connected to the said FP/acetone solution and a second peristaltic pump was connected to a water reservoir wherein the water was in the temperature range of about 3-30° C. Prior to starting the pumps the mixing chamber was filled with a solution of acetone and water (the ratio of each being the same as the relative pumping rates from the two reservoirs). By doing this, the relative concentrations of the water to acetone remained constant throughout the crystallisation. The temperature of the mixing chamber was maintained in the range about −10 to +30° C. by passing tempered heat transfer fluid through the vessel jacket. The FP/acetone solution inlet and water inlet were arranged coaxially or in parallel (as shown in FIGS. 1a/1b/2a/2b) and the tip of the ultrasound probe was positioned so that it is just above the inlets. Stirring with the aid of a non-grinding magnetic stirrer bar or overhead stirrer was initiated as is the ultrasound at intensity 2-4 W/cm^2 (with respect to the tip face area of the probe). A comparison experiment with the ultrasound probe in place but zero power was performed. Re-crystallisations were carried out from various mixtures of acetone and water (by altering the flow rates of each) as dictated by the parameters set out in the experimental design. Finally the pumps were started simultaneously. A suspension of the crystals in the re-crystallisation mixture was allowed to exit via the overflow directly on to a filter bed. The slurry is isolated and washed with water and dried in vacuo between about 20 to 50° C.
Comparison experiments were performed using the apparatus with diametrically opposite input feeds described in WO 00/38811 in which save for the input feed geometry and the specific parameters given in the table below, and the vessel dimensions given below, other parameters Were similar to those used for the experiments using the present invention.
Samples were sized using the Malvern laser diffraction particle sizer and the results analysed using multi-dimensional model fitting software (such as Design Expert 5).

## CCC(=O)O[C@]1(C(=O)SCF)[C@H](C)C[C@H]2[C@@H]3C[C@H](F)C4=CC(=O)C=C[C@]4(C)[C@@]3(F)[C@@H](O)C[C@@]21C [Run 1, fluticasone propionate]
Listed as 1
  Malvern size data D10: 0.60 micron
  Malvern size data D50: 2.25 micron
  Malvern size data D90: 6.29 micron

## CCC(=O)O[C@]1(C(=O)SCF)[C@H](C)C[C@H]2[C@@H]3C[C@H](F)C4=CC(=O)C=C[C@]4(C)[C@@]3(F)[C@@H](O)C[C@@]21C [Run 2, fluticasone propionate]
Listed as 2
  Malvern size data D10: 0.52 micron
  Malvern size data D50: 2.08 micron
  Malvern size data D90: 5.10 micron

## CCC(=O)O[C@]1(C(=O)SCF)[C@H](C)C[C@H]2[C@@H]3C[C@H](F)C4=CC(=O)C=C[C@]4(C)[C@@]3(F)[C@@H](O)C[C@@]21C [Run 3, fluticasone propionate]
Listed as 3
  Malvern size data D10: 0.47 micron
  Malvern size data D50: 1.78 micron
  Malvern size data D90: 4.39 micron

## CCC(=O)O[C@]1(C(=O)SCF)[C@H](C)C[C@H]2[C@@H]3C[C@H](F)C4=CC(=O)C=C[C@]4(C)[C@@]3(F)[C@@H](O)C[C@@]21C [Run 4, fluticasone propionate]
Listed as 4
  Malvern size data D10: 0.43** micron
  Malvern size data D50: 1.51** micron
  Malvern size data D90: 3.75** micron
Versus micronised material or prior art configurations C and D
  particle size distribution, comparison in words: very good match

## CCC(=O)O[C@]1(C(=O)SCF)[C@H](C)C[C@H]2[C@@H]3C[C@H](F)C4=CC(=O)C=C[C@]4(C)[C@@]3(F)[C@@H](O)C[C@@]21C [Run 5, fluticasone propionate]
Listed as 5
  Malvern size data D10: 0.86 micron
  Malvern size data D50: 2.98 micron
  Malvern size data D90: 6.92 micron

## CCC(=O)O[C@]1(C(=O)SCF)[C@H](C)C[C@H]2[C@@H]3C[C@H](F)C4=CC(=O)C=C[C@]4(C)[C@@]3(F)[C@@H](O)C[C@@]21C [Run 6, fluticasone propionate]
Listed as 6
  Malvern size data D10: 0.53 micron
  Malvern size data D50: 2.06 micron
  Malvern size data D90: 4.93 micron

## CCC(=O)O[C@]1(C(=O)SCF)[C@H](C)C[C@H]2[C@@H]3C[C@H](F)C4=CC(=O)C=C[C@]4(C)[C@@]3(F)[C@@H](O)C[C@@]21C [Run 7, fluticasone propionate]
Listed as 7
  Malvern size data D10: 1.15 micron
  Malvern size data D50: 4.19 micron
  Malvern size data D90: 10.00 micron

## CCC(=O)O[C@]1(C(=O)SCF)[C@H](C)C[C@H]2[C@@H]3C[C@H](F)C4=CC(=O)C=C[C@]4(C)[C@@]3(F)[C@@H](O)C[C@@]21C [Run 8, fluticasone propionate]
Listed as 8
  Malvern size data D10: 1.88 micron
  Malvern size data D50: 5.13 micron
  Malvern size data D90: 11.86 micron

## CCC(=O)O[C@]1(C(=O)SCF)[C@H](C)C[C@H]2[C@@H]3C[C@H](F)C4=CC(=O)C=C[C@]4(C)[C@@]3(F)[C@@H](O)C[C@@]21C [standard micronised FP, fluticasone propionate]
  Malvern size data D10: 0.60 micron
  Malvern size data D50: 1.62 micron
  Malvern size data D90: 3.20 micron
